# How the values were obtained:
# [1] = test system: specific IgE in serum samples; assay: Serum samples analysis on peptide array (IgE immunofluorescence assay); type: binding, human
# Source text: A plurality of peptide probes are synthesized according to each of the above peptide fragments of Der p1, Der p2, and Der p10. Theses synthesized peptide probes are spotted on a solid surface to construct a peptide array. The peptide array includes at least one reaction area, and each reaction area includes at least one reaction block. […] The peptide array of FIG. 11 includes at least one reaction area, and each reaction area includes 4 reaction blocks, namely R1, R2, R3, and R4.
# Serum samples are used and labeled to evaluate the peptide array of the present embodiment. The labeled serum samples include 23 positive serum samples obtained from patients showing allergy symptoms, one negative serum sample, and one blank. Conventional protein arrays are also used in the test, probes for which being allergens extracted from allergenic substances derived from natural origins, such as crabs, shrimps, dust mites (Dermatophagoides farinae), house dust mites and storage mites (Blomia tropicalis). Group 10 allergens (tropomyosins) have been assumed to be a major cause of cross-reactivity between house dust mites and other invertebrates.
# The sample serum is diluted with diluent buffer containing adequate amount of BSA, no-fat milk, and Tween-20. The peptide array of the present embodiment is incubated with each serum sample respectively at 37° C. for 1 hour. […]
# [2] = test system: binding between IgE in serum sample U and dust mite antigens; assay: IgE inhibition experiment, conventional protein array spotted with dust mite antigens; design: species or system human
# Experimental: (§1) The sample serum is diluted with diluent buffer containing adequate amount of BSA, no-fat milk, and Tween-20. The peptide array of the present embodiment is incubated with each serum sample respectively at 37° C. for 1 hour. A wash buffer containing Tween-20 is added to the reaction area of the peptide array to wash out extra serum. Anti-human IgE antibody labeled with Cy3 is added to the reaction area of the peptide array. The anti-human IgE with Cy3 binds on antibodies in the sample serum that binds to the peptide probes in the reaction area. The peptide array is then incubated at 37° C. for 1 hour in darkness. The diluent, wash buffer, and anti-human IgE with Cy3 is provided by EBS Immunoflourescence Specific IgE Assay. A laser scanner with FD532 nm detector is utilized to scan the peptide array after incubation. The intensities of FD532 nm of each peptide probe on the peptide array can be obtained. For protein arrays the positive values are highlighted, while for peptide arrays the numbers (No.) of the peptide probes showing positive values are listed. […] For the peptide array of the present embodiment, although all of the peptide probes are derived from antigens of house dust mites, only a number of probes are bound to the serum samples and generate positive results. Generally, the serum sample U is incubated with different concentration Der-p10-17 peptide (#60) for 30 minutes, and then serum sample U is transferred on conventional protein arrays spotted with crab, shrimp, dust mite and house dust mite antigens. In each of these arrays, different reaction blocks represent serum sample U incubated with different concentrations of Der-p10-17 (#60), where X1 is serum sample U incubated with the original concentration of Der-p10-17 (#60). X2 is serum sample U incubated with 2-fold dilution of the original concentration, X4 is serum sample U incubated with a 4-fold dilution and X8 is serum sample U incubated with an 8-fold dilution. The experiment protocol in Table 5A-5D and FIGS. 12A-12D may refer to the IgE immunofluorescence assay used in Table 4. The […] nm intensity value of crabs, shrimps, dust mites, and house mites are shown respectively. Various concentrations of Der-p10-17 peptide (#60) are tested to evaluate the dependence of inhibition on the inhibitor peptide concentration. The results of the IgE inhibition experiments are presented in FIGS. 12A-12D and Tables 5A-5D.
# [3] = test system: binding between IgE in serum sample U and house dust mite antigens; assay: IgE inhibition experiment, conventional protein array spotted with house dust mite antigens; design: species or system human
# Experimental: as §1
# [4] = test system: binding between IgE in serum sample U and crab antigens; assay: IgE inhibition experiment, conventional protein array spotted with crab antigens; design: species or system human
# Experimental: (§2) The sample serum is diluted with diluent buffer containing adequate amount of BSA, no-fat milk, and Tween-20. The peptide array of the present embodiment is incubated with each serum sample respectively at 37° C. for 1 hour. A wash buffer containing Tween-20 is added to the reaction area of the peptide array to wash out extra serum. Anti-human IgE antibody labeled with Cy3 is added to the reaction area of the peptide array. The anti-human IgE with Cy3 binds on antibodies in the sample serum that binds to the peptide probes in the reaction area. The peptide array is then incubated
# (§3) at 37° C. for 1 hour in darkness. The diluent, wash buffer, and anti-human IgE with Cy3 is provided by EBS Immunoflourescence Specific IgE Assay. A laser scanner with FD532 nm detector is utilized to scan the peptide array after incubation. The intensities of FD532 nm of each peptide probe on the peptide array can be obtained. For protein arrays the positive values are highlighted, while for peptide arrays the numbers (No.) of the peptide probes showing positive values are listed. […] For the peptide array of the present embodiment, although all of the peptide probes are derived from antigens of house dust mites, only a number of probes are bound to the serum samples and generate positive results.
# (§4) Generally, the serum sample U is incubated with different concentration Der-p10-17 peptide (#60) for 30 minutes, and then serum sample U is transferred on conventional protein arrays spotted with crab, shrimp, dust mite and house dust mite antigens. In each of these arrays, different reaction blocks represent serum sample U incubated with different concentrations of Der-p10-17 (#60), where X1 is serum sample U incubated with the original concentration of Der-p10-17 (#60). X2 is serum sample U incubated with 2-fold dilution of the original concentration, X4 is serum sample U incubated with a 4-fold dilution and X8 is serum sample U incubated with an 8-fold dilution. The experiment protocol in Table 5A-5D and FIGS. 12A-12D may refer to the IgE immunofluorescence assay used in Table 4. The F532 nm intensity value of crabs, shrimps, dust mites, and house mites are shown respectively. Various concentrations of Der-p10-17 peptide (#60) are tested to evaluate the dependence of inhibition on the inhibitor peptide concentration. The results of the IgE inhibition experiments are presented in FIGS. 12A-12D and Tables 5A-5D.
# [5] = test system: binding between IgE in serum sample U and shrimp antigens; assay: IgE inhibition experiment, conventional protein array spotted with shrimp antigens; design: species or system human
# Experimental: as §2, §3, §4
# [6] = Block 2-X8, serum sample U pre-incubated 30 minutes with 8-fold dilution of peptide
# [7] = Block 3-X4, 4-fold dilution of peptide
# [8] = Block 4-X2, 2-fold dilution of peptide
# [9] = Block 5-X1, original concentration of peptide
sequence,measurement,setting,value
ELDQTFAELTGY [Der-p10-17],binding of peptide probe to IgE in serum samples,[1]; peptide array,can bind to IgE in serum samples
same,reactivity of serum sample U on the peptide array,"[1]; serum sample U, Table 4",reactive
same,"F532 nm intensity value, dust mites",[2]; Block 2-X8,5767
same,"F532 nm intensity value, dust mites",[2]; [6],5979
same,"F532 nm intensity value, dust mites",[2]; [7],4767
same,"F532 nm intensity value, dust mites",[2]; [8],4428
same,"F532 nm intensity value, dust mites",[2]; [9],5475
same,"F532 nm intensity value, house dust mites",[3]; [6],3288
same,"F532 nm intensity value, house dust mites",[3]; [7],3247
same,"F532 nm intensity value, house dust mites",[3]; [8],3659
same,"F532 nm intensity value, house dust mites",[3]; [9],4288
same,inhibition of binding between IgE and antigens extracted from natural house dust mites,[3]; serum sample U,can inhibit the binding between IgE and antigens extracted from natural house dust mites
same,"F532 nm intensity value, crabs",[4]; Block 2-X8,14893
same,"F532 nm intensity value, crabs",[4]; [6],15148
same,"F532 nm intensity value, crabs","[4]; Block 3-X4, serum sample U pre-incubated with 4-fold dilution of peptide",11803
same,"F532 nm intensity value, crabs","[4]; Block 4-X2, serum sample U pre-incubated with 2-fold dilution of peptide",10695
same,"F532 nm intensity value, crabs","[4]; Block 5-X1, serum sample U pre-incubated with original concentration of peptide",13067
same,"inhibition of IgE cross-linking / decrease of intensity values, crab",[4]; serum sample U,can inhibit the IgE cross-linking between shrimp and crab
same,"F532 nm intensity value, shrimps",[5]; Block 2-X8,16678
same,"F532 nm intensity value, shrimps",[5]; [6],17902
same,"F532 nm intensity value, shrimps",[5]; [7],14759
same,"F532 nm intensity value, shrimps",[5]; [8],14481
same,"F532 nm intensity value, shrimps",[5]; [9],15396
same,"inhibition of IgE cross-linking / decrease of intensity values, shrimp",[5]; serum sample U,can inhibit the IgE cross-linking between shrimp and crab

# From US20170153247A1, “METHOD FOR RISK ASSESSMENT OF ALLERGIC REACTION” (Excelsior Bio-System Incorporation, priority 2015, published 2017)
